Values of other authors, collected in patent US6881426B2, “Echinacea angustifolia extracts” (priority 2002, dated 2005).

Test system: hyaluronidase

echinacoside
hyaluronidase inhibition: inhibition
